Measured values: publication PMC12597941 (Frontiers in Pharmacology, 2025)

What was measured:
[1] = Untargeted LC-HRMS metabolite profiling after oral PAC administration
Description: Animals to be sacrificed at 6 h (only test item-treated animals) were placed in metabolic cages (650-0100, Nalgene) for the collection of urine. Urine was stabilized with a final concentration of 4 mM NaN3 and stored at 4 °C. At 1 h and 6 h after the administration of the vehicle (1 h only) or test items (1 and 6 h), animals from the respective treatment groups were euthanized by CO2 inhalation. Blood was obtained by cardiac puncture and drawn in lithium-heparin-containing vials for the preparation of plasma by centrifugation (4,000 rpm, 4 °C, 10 min). Plasma was stored at −80 °C until bioanalytical analysis. Samples of the mixed intestinal content were obtained by scraping the small intestine, cecum, and large intestine into a 5-mL tube. Tubes were covered with gaseous N2 and stored at −80 °C.
The supernatant was evaporated to dryness and resuspended in 150 µL 1% FA in H2O/ACN (9/1, v/v) for analysis.
Rat intestinal content was first freeze-dried and finely crushed. […] Ethyl acetate extracts were evaporated to dryness and then resuspended in 300 µL 1% FA in H2O/ACN (9/1, v/v) for untargeted LC-HRMS analysis. Internal standards (listed in Supplementary Table S1) were spiked to both the sample types to ensure the performance of the measurements and monitor matrix effect.
Untargeted metabolite profiling was performed using a Vanquish UHPLC coupled with an Orbitrap Fusion Tribrid mass spectrometer (Thermo Fisher Scientific, Waltham, MA, United States of America) fitted with a HESI source. Chromatographic separation was performed on Waters Acquity HSS T3 1.8 µm Column (2.1 mm × 150 mm) (Waters Technologies, United States of America). The injection volume was 5 µL. The flow rate was set at 0.45 mL/min, and the column temperature was 40 °C. […] The gradient was as follows: 0% B from 0 to 2 min, 0%–10% B from 2 to 10 min, 10%–80% B from 10 to 25 min, 80%–100% B from 25 to 26 min, 100% B from 26 to 31 min, 100%–0% B from 31 to 32 min, and 3 min equilibration at 0% B.
Compound discoverer 3.1 (CD, Thermo Fisher Scientific, Waltham, MA, United States of America) was used for untargeted and novel feature detection. Raw files were processed with CD in the following steps: first, spectra were selected from raw data followed by retention time (RT) alignment with RT tolerance of 2 min and 5 ppm mass precision. Then, unknown compounds were detected and grouped with RT tolerance of 0.5 min and 5 ppm mass deviation. Missing values were filled. The composition was predicted based on the exact mass. The compounds were annotated with different types of databases. mzCloud was used to annotate compounds on the MS/MS level with a mass tolerance of 10 ppm. ChemSpider was used to annotate features based on the exact mass with a mass tolerance of 20 ppm.
Relevant features were identified by performing differential analysis between the vehicle and PAC treatment groups in Compound Discoverer software. […] Compound annotations of these features were checked for plausibility, and, if necessary, structural elucidation was manually continued.

[2] = Plasma levels of terpene lactones, flavonol aglycones and PAC metabolites in T-maze mice; type: in vivo
Description: Targeted LC-MS/MS was used to quantify known and newly identified PAC metabolites (MRM transitions based on MS2 spectra of the untargeted analysis), as well as main ginkgo terpene lactones and flavonol aglycones in one single run in mouse plasma obtained from the pharmacological experiments (Supplementary Table S1).
The injection volume was 10 µL. […] Data processing was carried out with MassHunter Quantitative Analysis 10.1 software.
Plasma levels of terpene lactones (ginkgolide A, ginkgolide B, and bilobalide) and main ginkgo flavonol aglycones (quercetin, kaempferol, and isorhamnetin) were quantified in samples from animals used in the T-maze model. The detailed protocols for the analysis methods are included in the Supplementary Material.
Quantification of Acetylcholine in plasma […]
as described in the manufacturer’s instructions. […]
for 30 min at room temperature. […]
subtracted and of ACh concentration was calculated.
Flavonol aglycone quantification in plasma […]
methanol. […]
Data processing was conducted with mass hunter quantitative analysis 10.1.
Terpene lactone quantification in plasma […]
An Agilent 7890B GC (Agilent, Santa Clara, CA) coupled to an Agilent 7000D triple-quadrupole MS (Agilent, Santa Clara, CA) was used to analyze all samples. […] Target analytes were analyzed in negative ion chemical ionization with multiple reaction monitoring (MRM) mode using […]

[3] = tested on: scopolamine-induced working memory impairment; assay: T-maze spontaneous alternation, scopolamine-induced memory impairment; type: in vivo; conditions: mice, p.o. 1 h before T-maze; donepezil 0.3 mg/kg
Description: To impair short-term memory, mice were injected intraperitoneally (i.p.) with 1 mg/kg scopolamine (S1875, Sigma-Aldrich) or 0.9% NaCl (PZN01399062, Fresenius) 20 min prior to the experimental session. […] Switching from the right to the left arm of the T-maze or vice versa was calculated as correct alternations (%). The method is based on the study by [Deacon (2006)]. At 15 min after the start of the T-maze observation and once the 20 arm entry trials were finalized, animals were euthanized with CO2, and blood was collected by cardiac puncture for EDTA-plasma (Figure 1).
Data were analyzed using GraphPad Prism 10.1.2 (GraphPad Software, La Jolla, CA). Experimental groups were compared using one-way analysis of variance (ANOVA) or two-way ANOVA, followed by Dunnett’s post-test. Vehicle and each active treatment group were compared to the vehicle–scopolamine group (that received vehicle p.o., followed by i.p. injection of scopolamine). For calculation of dose–response curves, reversal of the scopolamine-induced amnesia was calculated. […] For ROS data, baseline ROS levels without treatment were set as 0% inhibition. […] Emax, and relative ID50 values for the T-maze in vivo studies were taken directly from the calculated dose–response curve data provided by Graph Pad Prism. […]

[4] = after oral PACs, c = detected in mice plasma

Compound	Time points at which the metabolite was detected ([1]; after oral PACs) [h]	Compartment in which the metabolite was detected [1, 4]	further results
O=C(O)[C@H]1O[C@@H](Oc2c(-c3cc(O)c(O)c(O)c3)oc3cc(O)cc(O)c3c2=O)[C@H](O)[C@@H](O)[C@@H]1O [M18, Myricetin 3-O-glucuronide]	1	Intestine	
O=C1CCC(Cc2ccc(O)c(O)c2)O1 (stereo not shown) [M13, 5-(3‘,4‘-Dihydroxyphenyl)-γ-Valerolactone]	6	Intestine	
COc1cc(O)cc2oc(-c3cc(O)c(O)c(O)c3)c(O)c(=O)c12 [M21, 5-O-Methylmyricetin]	6	Urine	
Oc1cc(O)c2c(c1)O[C@H](c1cc(O)c(O)c(O)c1)[C@H](O)C2 [M10, Epigallocatechin]		Intestine	
O=c1c(O)c(-c2cc(O)c(O)c(O)c2)oc2cc(O)cc(O)c12 [M20, Myricetin]			Compartment in which the metabolite was detected ([1]; rat, in vivo, po): Intestine; Time points at which the metabolite was detected ([1]; rat, in vivo, po): 1h, 6h
COc1cc(-c2oc3cc(O)cc(O)c3c(=O)c2O[C@@H]2O[C@H](C(=O)O)[C@@H](O)[C@H](O)[C@H]2O)cc(O)c1O [M19, 5'-O-methyl Myricetin 3-O-glucuronide]	1	Intestine	
O=C1CCC(Cc2cc(O)c(O)c(O)c2)O1 (stereo not shown) [M08, 5-(3',4',5'-trihydroxyphenyl)-gamma-Valerolactone]	6	Intestine	
Oc1cc(O)c2c(c1)O[C@H](c1cc(O)c(O)c(O)c1)[C@@H](O)C2 [M04, Gallocatechin]		Intestine	
Oc1cc(O)c(CC(O)Cc2cc(O)c(O)c(O)c2)c(O)c1 (stereo not shown) [M09, 1-(3‘,4‘,5‘-trihydroxyphenyl)-3-(2‘‘,4‘‘,6‘‘-trihydroxyphenyl)propan-2-ol]	6	Intestine	
O=C1CCC(Cc2cc(O)cc(O)c2)O1 (stereo not shown) [M12, 5-(3‘,5‘-Dihydroxyphenyl)-γ-Valerolactone]	6	Intestine	
Oc1cc(O)c2c(c1)OC(c1ccc(O)c(O)c1)C(O)C2 (stereo not shown) [M11, Catechin]	6	Intestine	
O=C(O)c1cc(O)c(O)c(O)c1 [M01, Gallic acid]			plasma level versus PAC dose ([2]; plasma of PAC-treated mice, approximately 1 h 15 min after administration): dose-dependent increase; Time points at which the metabolite was detected ([1]; rat, in vivo, po): 6 h
COc1cc2c(cc1OC)C(=O)C(CC1CCN(Cc3ccccc3)CC1)C2 (stereo not shown) [donepezil]			effect on scopolamine-induced impairment of correct alternations [3]: largely prevented
Methylgallic acid-O-sulphate [M06]		Urine	
COc1cc(C(O)C(O)/C(=C\C(=O)O)c2ccccc2)cc(O)c1O (stereo not shown) [M17, (2Z)-5-(3,4-dihydroxy-5-methoxyphenyl)-4,5-dihydroxy-3-phenylpent-2-enoic acid]	6	Intestine	
COc1cc(C=O)ccc1O[C@@H]1O[C@H](C(=O)O)[C@@H](O)[C@H](O)[C@H]1O [M07, Vanillin glucuronide]		Urine	
Oc1cc(O)c(CC(O)Cc2ccc(O)c(O)c2)c(O)c1 (stereo not shown) [M14, 1-(3′,4′-dihydroxyphenyl)-3-(2″,4″,6″-trihydroxyphenyl)propan-2-ol]	6	Intestine	
Gallic acid-O-sulphate [M02]		Plasmac	time of peak plasma level ([2]; mouse plasma, after PAC fraction 100 mg/kg p.o., peak area): 1 h
Gallic acid glucuronide [M03]		Urine	
O=C(O[C@@H]1Cc2c(O)cc(O)cc2O[C@@H]1c1cc(O)c(O)c(O)c1)c1cc(O)c(O)c(O)c1 [M15, Epigallocatechin gallate]	1	Intestine	
